Measurements as given in PMC9804387, “Substrate Peptidomimetic Inhibitors of P. falciparum Plasmepsin X with Potent Antimalarial Activity” (Chemmedchem, 2022).
Where a name gives a salt, the structure may show the parent alone.

Assays:
recombinant Pf PMX = molecular target: T1, recombinant Pf PMX (Plasmodium falciparum, UniProt Q8IAS0); test: PMX biochemical FRET assay (Rh2N fluorogenic substrate cleavage); details: 37 °C
T1 construct: made in house
Description: FRET Protease Assays. FRET protease assays were performed as previously described.[19, 20, 27, 28] Briefly, ten‐point 1 : 3‐fold dilution series of the compounds were prepared in 384‐well black low volume assay plates (Greiner) using an Echo555 (Labcyte). 10 mM compound stocks were transferred into assay plates such that the starting concentration was 90 μM (Pv PMV assays), 11.25 μM (renin, cathepsin D and BACE‐1 assays) or 100 nM and 10 μM (Pf PMX and Pf PMIX assays). All wells were backfilled to 200 nL DMSO such that the DMSO concentration remained constant across the assay plates (1 % final). All compound potency assays were conducted in 20 μL total volume. For each assay, 10 μL of recombinant enzymes in respective assay buffers (Table S2) were dispensed into compound containing assay plates using a Multidrop‐Combi dispenser and allowed to incubate for 15 min. Recombinant Pf PMX, Pf PMIX and Pv PMV were expressed as previously described,[23, 27, 28] and recombinant human aspartyl proteases were purchased commercially. 10 μL of the fluorogenic peptide substrates incubated at 37 °C for the duration and conditions noted in Table S2. Samples were excited at 340 nm and fluorescence emission measured at 492 nm using an Envision fluorescence plate reader (Perkin‐Elmer). The 0 % inhibition control contained DMSO alone (1 % final) and the 100 % inhibition control was in the absence of enzyme. […]
(§1) Table S2 . P rotease FRET assay conditions.
(§2) PMX as sa y PMIX PM V assay Renin assay Cathepsin D assay BA CE-1 assay E nzy me prot e as e 0.25 nM pro te a se 6 nM prot e as e q ua nti ty 0.1 nM pro t ea se 1.5 nM pro t ea se 2.5 nM pro t ea se 3 nM (Pro te os #R-001) ( Athe ns Re sea rc h (Sigma #S4195) […]
(§3) 25mM so di um acetate, 100 mM 25 mM M E S, 25 m M 50 mM Tr is, 100 mM 100 mM so di u m 20 mM so dium Buffer acetate, 0.005% sodium chloride and Tris-HCl, 0.01% N aC l, 0. 1% Bri j-35, acetate 0.02% scetate, 0.05% […]
(§4) Sub str at e DABCYL- ( DA BC YL ) - DABCYL- DABCYL-(γ- Ab u) - E[E(EDANS)]KPIL […]

[1] = test system: P. falciparum (Pf) 3D7 parasites; test: P. falciparum LDH viability assay; format: cell-based; details: for EC50: Plasmodium falciparum, 3D7, 72 h, LDH activity, 72 h at 37 °C, mean and SD of 3 independent experiments
Description: P. falciparum LDH Viability Assay. P. falciparum LDH viability assays were performed as previously described.[40] Briefly, a ten‐point 1 : 3‐fold dilution series of the compounds were pre‐dispensed in 384‐well assay plates (Grenier), and RPMI/AlbuMAX growth media inoculated with synchronized ring stage P. falciparum parasites. 10 mM compound stocks were transferred into the assay plates such that the starting concentration was 10 μM. Plates were incubated for 72 h and then frozen at −80 °C overnight. Lactate dehydrogenase (LDH) activity was quantified with APAD by measuring absorbance of NBT at 650 nm. Data were normalized to percent growth inhibition using the positive control of 0.1 % DMSO alone and the negative control of 100 nM chloroquine. Half‐maximal effective concentration (EC50) values were calculated by GraphPad Prism (8.0.2) software using a nonlinear regression four‐parameter fit analysis using a sigmoidal dose response (variable slope).

recombinant Pf PMIX = molecular target: T2, recombinant Pf PMIX (Plasmodium falciparum, UniProt Q8ILG2); test: PMIX FRET protease assay; format: biochemical, P. falciparum; details: mean and SD of 4 replicate FRET experiments, 37 °C
T2 construct: made in house
Description: (§5) FRET Protease Assays. FRET protease assays were performed as previously described.[19, 20, 27, 28] Briefly, ten‐point 1 : 3‐fold dilution series of the compounds were prepared in 384‐well black low volume assay plates (Greiner) using an Echo555 (Labcyte). 10 mM compound stocks were transferred into assay plates such that the starting concentration was 90 μM (Pv PMV assays), 11.25 μM (renin, cathepsin D and BACE‐1 assays) or 100 nM and 10 μM (Pf PMX and Pf PMIX assays). All wells were backfilled to 200 nL DMSO such that the DMSO concentration remained constant across the assay plates (1 % final). All compound potency assays were conducted in 20 μL total volume. For each assay, 10 μL of recombinant enzymes in respective assay buffers (Table S2) were dispensed into compound containing assay plates using a Multidrop‐Combi dispenser and allowed to incubate for 15 min. Recombinant Pf PMX, Pf PMIX and Pv PMV were expressed as previously described,[23, 27, 28] and recombinant human aspartyl proteases were purchased commercially. 10 μL of the fluorogenic peptide substrates incubated at 37 °C for the duration and conditions noted in Table S2. Samples were excited at 340 nm and fluorescence emission measured at 492 nm using an Envision fluorescence plate reader (Perkin‐Elmer). The 0 % inhibition control contained DMSO alone (1 % final) and the 100 % inhibition control was in the absence of enzyme. Half‐maximal inhibitory concentration (IC50) values were calculated by GraphPad Prism (8.0.2) software using a nonlinear regression four‐parameter fit analysis using a sigmoidal dose response (variable slope).
as §1, §2, §3, §4

cathepsin D = molecular target: T3, cathepsin D (Homo sapiens, UniProt P07339); test: Cathepsin D FRET protease assay; format: biochemical; details: mean and SD of 4 replicate FRET experiments, 37 °C; highest concentration tested 11 μM
T3 construct: purchased Athens Research 16-12-030104

BACE‐1 = molecular target: T4, BACE‐1 (Homo sapiens, UniProt P56817); test: BACE-1 FRET protease assay; format: biochemical; details: mean and SD of 4 replicate FRET experiments, 37 °C; highest concentration tested 11 μM
T4 construct: purchased Sigma S4195

recombinant Pv PMV = molecular target: T5, recombinant Pv PMV (Plasmodium vivax, UniProt A5K302); test: PMV FRET protease assay; format: biochemical
T5 construct: made in house
Description: as §5, §1, §2, §3, §4

renin = molecular target: T6, renin (Homo sapiens, UniProt P00797); test: Renin FRET protease assay; format: biochemical; details: mean and SD of 4 replicate FRET experiments, 37 °C; highest concentration tested 11 μM
T6 construct: purchased Proteos R-001
T6 sequence (P00797 67-406): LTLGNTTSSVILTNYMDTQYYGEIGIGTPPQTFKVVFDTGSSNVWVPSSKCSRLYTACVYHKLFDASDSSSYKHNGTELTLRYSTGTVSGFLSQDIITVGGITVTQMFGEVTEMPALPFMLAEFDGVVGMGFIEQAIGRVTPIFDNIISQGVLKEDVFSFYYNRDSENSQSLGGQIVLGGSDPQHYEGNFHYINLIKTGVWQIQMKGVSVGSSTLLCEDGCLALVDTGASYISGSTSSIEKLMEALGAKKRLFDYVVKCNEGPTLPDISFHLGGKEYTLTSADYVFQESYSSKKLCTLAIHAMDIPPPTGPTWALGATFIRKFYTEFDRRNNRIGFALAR

[2] = Table 3, mean and SD of 4 replicate FRET experiments
[3] = recombinant PMX, fluorogenic substrate (Rh2N) cleavage, 4 h, mean and SD of 4 replicates (Tables 1, 2)

T1 sequence (Q8IAS0 222-573): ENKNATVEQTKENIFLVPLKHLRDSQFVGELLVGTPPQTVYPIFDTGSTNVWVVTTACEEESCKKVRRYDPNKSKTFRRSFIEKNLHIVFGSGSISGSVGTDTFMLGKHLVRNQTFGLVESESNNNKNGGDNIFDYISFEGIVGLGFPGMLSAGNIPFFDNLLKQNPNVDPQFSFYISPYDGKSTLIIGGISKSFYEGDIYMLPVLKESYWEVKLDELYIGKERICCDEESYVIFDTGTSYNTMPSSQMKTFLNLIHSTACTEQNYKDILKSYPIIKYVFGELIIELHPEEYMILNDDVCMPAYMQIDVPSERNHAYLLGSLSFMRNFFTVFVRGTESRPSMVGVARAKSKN
T3 sequence (P07339 65-412): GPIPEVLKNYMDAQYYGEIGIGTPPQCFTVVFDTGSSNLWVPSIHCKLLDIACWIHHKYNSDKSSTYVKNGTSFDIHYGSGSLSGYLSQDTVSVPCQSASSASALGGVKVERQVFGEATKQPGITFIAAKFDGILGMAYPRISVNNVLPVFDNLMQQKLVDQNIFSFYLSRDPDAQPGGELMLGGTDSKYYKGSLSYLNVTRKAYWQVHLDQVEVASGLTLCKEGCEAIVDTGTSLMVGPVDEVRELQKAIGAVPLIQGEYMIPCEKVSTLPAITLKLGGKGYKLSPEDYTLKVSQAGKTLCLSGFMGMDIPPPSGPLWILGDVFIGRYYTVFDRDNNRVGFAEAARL
T4 sequence (P56817 46-460 limits assumed): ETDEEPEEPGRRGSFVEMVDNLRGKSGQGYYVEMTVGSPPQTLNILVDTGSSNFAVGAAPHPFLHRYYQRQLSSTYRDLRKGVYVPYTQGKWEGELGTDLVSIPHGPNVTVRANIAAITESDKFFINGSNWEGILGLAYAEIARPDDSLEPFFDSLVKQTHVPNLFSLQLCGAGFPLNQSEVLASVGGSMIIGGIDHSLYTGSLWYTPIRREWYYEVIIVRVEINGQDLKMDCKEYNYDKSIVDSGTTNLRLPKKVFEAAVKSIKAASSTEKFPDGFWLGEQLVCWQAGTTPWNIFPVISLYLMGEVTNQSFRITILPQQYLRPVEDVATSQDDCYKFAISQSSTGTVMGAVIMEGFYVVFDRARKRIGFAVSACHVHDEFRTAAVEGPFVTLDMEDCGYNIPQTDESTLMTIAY
T5 sequence (A5K302 35-536): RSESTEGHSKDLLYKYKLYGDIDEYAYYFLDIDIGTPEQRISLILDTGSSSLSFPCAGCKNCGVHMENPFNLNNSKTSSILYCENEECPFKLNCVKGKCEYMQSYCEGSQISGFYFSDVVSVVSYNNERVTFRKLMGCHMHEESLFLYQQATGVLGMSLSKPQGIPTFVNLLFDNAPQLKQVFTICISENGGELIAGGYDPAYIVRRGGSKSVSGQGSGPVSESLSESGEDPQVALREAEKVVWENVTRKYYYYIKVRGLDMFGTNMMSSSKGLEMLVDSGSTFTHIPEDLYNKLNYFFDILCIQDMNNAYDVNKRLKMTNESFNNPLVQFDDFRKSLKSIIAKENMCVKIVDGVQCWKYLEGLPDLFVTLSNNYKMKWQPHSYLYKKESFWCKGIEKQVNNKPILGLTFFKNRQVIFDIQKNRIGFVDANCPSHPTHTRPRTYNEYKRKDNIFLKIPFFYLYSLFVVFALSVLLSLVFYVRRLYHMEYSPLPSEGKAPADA
T2 sequence (Q8ILG2 whole entry): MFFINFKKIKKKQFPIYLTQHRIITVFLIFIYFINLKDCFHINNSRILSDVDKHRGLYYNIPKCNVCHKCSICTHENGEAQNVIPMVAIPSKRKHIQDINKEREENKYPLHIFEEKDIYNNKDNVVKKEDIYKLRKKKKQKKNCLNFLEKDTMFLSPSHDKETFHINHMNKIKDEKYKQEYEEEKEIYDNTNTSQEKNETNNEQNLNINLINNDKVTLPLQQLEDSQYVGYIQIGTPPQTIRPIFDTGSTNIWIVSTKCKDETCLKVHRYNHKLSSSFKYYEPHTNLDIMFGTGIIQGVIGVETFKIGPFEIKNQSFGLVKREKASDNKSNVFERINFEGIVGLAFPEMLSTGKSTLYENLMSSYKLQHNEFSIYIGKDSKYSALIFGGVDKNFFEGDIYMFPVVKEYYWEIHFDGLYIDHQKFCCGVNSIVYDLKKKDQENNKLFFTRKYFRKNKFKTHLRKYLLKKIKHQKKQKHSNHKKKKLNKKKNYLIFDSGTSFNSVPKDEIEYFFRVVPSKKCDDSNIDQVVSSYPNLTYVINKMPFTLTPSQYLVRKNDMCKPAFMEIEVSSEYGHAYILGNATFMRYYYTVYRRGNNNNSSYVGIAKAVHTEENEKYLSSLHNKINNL

Compound	IC50 (recombinant Pf PMX; [2])	IC50 (recombinant Pf PMX; [3])	EC50 [1]	IC50 (recombinant Pf PMIX)	IC50 (cathepsin D)	IC50 (BACE‐1)	IC50 (recombinant Pv PMV)	IC50 (renin)	fold decrease in parasite activity compared to PMX inhibition ([1]; Pf 3D7 EC50 versus PMX IC50)
C[C@@H](NC[C@@H](O)[C@H](Cc1ccccc1)NC(=O)c1ccc(C(=O)N2CCN(C)CC2)cc1)c1ccccc1 [Compd 2, reference compound]	0.001 µM	0.001 µM	0.001 µM	15.1 µM	> 11 µM	> 11 µM	> 90 µM	> 11 µM	–
C[C@@H](NC[C@@H](O)[C@H](Cc1ccccc1)NC(=O)[C@H](CO)NC(=O)OCc1ccccc1)c1ccccc1 [Compd 38, Cbz‐Ser‐Phe‐HEA‐Bn(CH3)⋅TFA]	0.06 µM	0.06 µM	0.09 µM	41 µM	> 11 µM	> 11 µM	> 90 µM	> 11 µM	2 fold
